These results are taken from patent US8012980B2, “Isoquinolinone derivatives” (AstraZeneca AB, priority 2008, dated 2011).

Series [1] has as its system LPS-induced BAL neutrophilia. Description: LPS Challenge Assay (neutrophil migration into the airway after aerosol LPS challenge). The series is classed as in vivo, Han Wistar (HW) rat. The note with it: Han Wistar rat; nose-only inhalation; nebuliser concentration of <1 mg/mL; dosed 0.5 hour before the LPS challenge. The protocol: The following is a description of an assay that may be used to evaluate a compounds activity on neutrophil migration into the airway after aerosol challenge with lipopolysaccharide (LPS) in the Han Wistar (HW) rat.
LPS challenge in HW rats caused an influx of inflammatory cells into the lungs. Rats were challenged either with an aerosol of 0.9% w/v saline or 0.5 mg/mL LPS in 0.9% saline for 30 min. Rats were dosed with vehicle or test compound by nose-only inhalation administration at various time points before challenge depending upon the experimental protocol. Test compound groups could either be the same compound at different doses or single doses of different compounds. […]
The rats were euthanized with 200 mg pentobarbitone sodium at various time points after challenge depending upon the nature of the study, but typically 4 hr after LPS challenge. […] An aliquot of BAL fluid was removed and counted on the Sysmex XT2000Vet automated cell counter (Sysmex UK, Milton Keynes). […] Cells were classified as eosinophils, neutrophils or mononuclear cells (mononuclear cells included monocytes, macrophages and lymphocytes) and were expressed as a percentage of the total cell count.
Compounds were scored as active if a statistically significant (i.e. p<0.05) inhibition of the LPS-induced BAL neutrophilia response was observed.

Series [2] concerns mouse lymphoma L5178Y cells. The series is described as follows: In Vitro Micronucleus Assay (genotoxicity). The series is classed as cell-based. The note with it: 3 hours exposure in the presence or absence of S9 mix, up to 1 mmol/L or solubility limit. The source says: In Vitro Micronucleus Assay
The following is a description of an assay that may be used to assess the genotoxicity of a compound using mouse lymphoma […] cells.
The in vitro micronucleus assay (IVM) detects chemicals that induce chromosomal damage by measuring the formation of small intra cell membrane-bound DNA fragments. At AstraZeneca, L5178Y cells are used as these are the cells of choice for follow on regulatory mammalian cell in vitro genotoxicity screening. The test system is simple to perform and produces rapid results. The IVM is suitable as a preliminary genetic toxicity-screening assay prior to compound selection.
A wide range of test chemical concentrations, up to 1 mmol/L or the chemicals solubility limit, is tested. […] Where possible, 20 hours after treatment exposure, at least three concentrations giving acceptable levels of toxicity (greater than 10% survival as measured by two day relative suspension growth) are selected for analysis of micronucleated cells. […] Where possible, a total of at least 1000 cells per culture are scored.
For any concentration, an increase in the number of micronucleated cells is considered to be significant if the increase is at least 2-fold the concurrent solvent control level, and the number of micronucleated cells is greater than 8 per thousand cells scored.

The target of series [3] is T1, human active recombinant p38 (p38α) (Homo sapiens, UniProt Q16539).
T1 construct: 6His
T1 sequence (Q16539 whole entry): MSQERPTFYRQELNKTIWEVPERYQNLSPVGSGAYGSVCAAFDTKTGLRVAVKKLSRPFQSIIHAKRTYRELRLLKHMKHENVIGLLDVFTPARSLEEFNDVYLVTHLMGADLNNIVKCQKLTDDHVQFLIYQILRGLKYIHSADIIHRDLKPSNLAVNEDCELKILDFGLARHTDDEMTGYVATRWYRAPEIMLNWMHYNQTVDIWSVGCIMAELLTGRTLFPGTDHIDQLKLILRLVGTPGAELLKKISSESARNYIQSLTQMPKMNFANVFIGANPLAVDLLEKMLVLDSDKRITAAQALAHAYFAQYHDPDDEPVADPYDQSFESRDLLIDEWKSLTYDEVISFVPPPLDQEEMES
The series is described as follows: p38 Alpha Enzyme Assay (AlphaScreen, biotinylated-ATF2 substrate). It counts as biochemical. The following applies: means of replicate determinations; pre-incubated for 4 hours at 37° C.; SD of assay between 0.2 and 0.3 log units; read-out: p38α inhibition Mean pIC50 (converted). A general note: In Alpha technology, singlet oxygen from a donor bead excites a nearby acceptor bead.

Regarding `Cc1c(F)cc(C(=O)NC2CC2)cc1-c1ccc2c(=O)n(CC(C)(C)CO)cc(CN3CCNC[C@H]3C)c2c1` [Example 26, N-Cyclopropyl-3-fluoro-5-[2-(3-hydroxy-2,2-dimethylpropyl)-4-{[(2R)-2-methylpiperazin-1-yl]methyl}-1-oxo-1,2-dihydroisoquinolin-6-yl]-4-methylbenzamide], in series [1], the “activity in LPS Challenge Assay (active = statistically significant, p<0.05, inhibition of the LPS-induced BAL neutrophilia response)” value is “active”. For the same molecule, the “activity in micronucleus assay (significant = at least 2-fold solvent control and more than 8 micronucleated cells per thousand)” value in series [2] was “inactive”. The IC50 in series [3] was 0.251 nM. Take `Cc1c(F)cc(C(=O)NC2CC2)cc1-c1ccc2c(=O)n(CC3(CO)CC3)cc(CN3CCNCC3)c2c1` [Example 19, N-Cyclopropyl-3-fluoro-5-[2-{[1-(hydroxymethyl)cyclopropyl]methyl}-1-oxo-4-(piperazin-1-ylmethyl)-1,2-dihydroisoquinolin-6-yl]-4-methylbenzamide]: the IC50 in series [3] is 0.398 nM. On to `Cc1c(F)cc(C(=O)NC2CC2)cc1-c1ccc2c(=O)n(CCCO)cc(CN3CCN[C@@H](C)C3)c2c1` [Example 4, N-Cyclopropyl-3-fluoro-5-(2-(3-hydroxypropyl)-4-(((3S)-3-methylpiperazin-1-yl)methyl)-1-oxo-1,2-dihydroisoquinolin-6-yl)-4-methylbenzamide], for which the IC50 in series [3] is 0.501 nM. On the same count and under the same terms, the same measure for `Cc1c(F)cc(C(=O)NC2CC2)cc1-c1ccc2c(=O)n(CC(C)(C)CO)cc(C(C)N3CCNCC3)c2c1` (racemic) [Example 38, N-Cyclopropyl-3-fluoro-5-[2-(3-hydroxy-2,2-dimethylpropyl)-1-oxo-4-(1-piperazin-1-ylethyl)-1,2-dihydroisoquinolin-6-yl]-4-methylbenzamide racemate]: 0.2 nM.
